Key:
[1] = test system: colon adenocarcinoma tumor (AKATOL); assay: Transplanted colon adenocarcinoma (AKATOL), peroral administration; format: in vivo, mice of the BALB line; conditions: 10 mg/kg peroral in olive oil
Description: Tumor cells were transplanted in mice of the BALB line by injection into the thighs. 3 of 4 groups received the respective preparation on the peroral route 3, 4, 5, 6, 7, 8, 9 and 10 days after tumor implantation.
Group I: 10 mg/kg complex A suspended in olive oil.
Group II: 5 mg/kg complex A suspended in olive oil.
Group III: 10 mg/kg sarcolysine suspended in olive oil.
On day 21 of the experiment the animals were sacrificed and examined.

[2] = test system: human mammary gland tumor cells, T2N1M0 stage; assay: In vitro effect on human mammary gland tumor cells, Experiment 1; format: cell-based
Description: (§1) Tumor cells were collected from the surgical material of female patients suffering from mammary carcinoma at two different stages. The tumor tissue was added with sterile 0.25% trypsin solution and centrifuged repeatedly in RPMI-1640 nutrient medium for 15 minutes at 1500 revolutions per minute. The amount of resulting cells was counted and the suspension of tumor cells divided into five equal groups. The RPMI-1640 nutrient medium was added with 12% fetal calf serum. The cells were incubated for 48 h at 37° C. in a 5% CO2 stream.
(§2) The preparations were dissolved in 4% DMSO and physiological saline and acidified with HCl.
(§3) Two experiments were performed using cancer cells derived from tumors of different stages. To differentiate the various stages of cancer, the TNM classification is used internationally which takes into account the tumor size (T), lymph node affection (N=nodal status) and the extent of metastasis (M).
(T2: tumor up to 5 cm; N1; metastases in 3 lymph nodes; M0: no distant metastases). A suspension including 40 million cells was added with 50 μl of each preparation.
(§4) The 5 groups with cancer cells received the following:
(§5) After subjecting the preparations to flow incubation for 60 minutes, trypan blue stained cells were produced, and dead cells and apoptosis could be determined; dead cells and apoptotic cells were determined in specific units of time and morphological findings.

[3] = test system: human mammary gland tumor cells, T4N2M0 stage; assay: In vitro effect on human mammary gland tumor cells, Experiment 2; format: cell-based
Description: as §1, §2, §3
(T3: large tumor spreading into the tissue surrounding the breast; N2: metastases up to 9 axillary lymph nodes, M0: no distant metastases). A suspension including 40 million cells was added with 50 μl of each preparation.
as §4, §5

neutrophils = assay: Antioxidant properties: ROS formation in neutrophils; format: cell-based, male mice of the NMRI line; conditions: triggered by PMA and fMLF, depending on the dosage
Description: The complexes A and C show a pronounced effect as antioxidant in an environment having an excess of reactive oxygen species (ROS). Thus, ROS formation in neutrophils obtained from male mice of the NMRI line was triggered by two activators: phorbol 12-myristate 13-acetate (PMA) and N-formyl-methionyl-leucylphenylalanine (fMLF).

melanoma B 16 = assay: B 16 melanoma in mice, intraabdominal administration; format: in vivo, mice of the line C 57Bl; conditions: 5 mg/kg intraabdominally
Description: The melanoma B 16 was implanted in 20 mice of the line C 57Bl by subcutaneous injection into the right thigh. The animals were divided into four groups of five mice each. Group I received complex A at a dosage of 7 mg/kg, dissolved in DMSO, which was administered intraabdominally in a 4% suspension in physiological saline. Each administration was performed 3, 5, 7 and 9 days after trans-plantation of the tumor.
Group II was treated as group I, but using a dosage of 5 mg/kg.
Group III was treated as group I, but received 5 mg/kg of melphalan hydrochloride instead of complex A.
Group IV remained untreated.

[4] = test system: Ehrlich ascites adenocarcinoma; assay: Ehrlich ascites adenocarcinoma in mice; format: in vivo, white mice
Description: The tumor was implanted intraabdominally in white mice of no particular race.
Group I received complex A orally as a suspension in olive oil at a dosage of 10 mg/kg 3, 4, 5, 6, 7, 8, 9 and 10 days after tumor implantation.
Group II received the same treatment, but using sarcolysine instead of complex A.
Group III received no treatment.
The animals were sacrificed and examined on the 11th day after tumor implantation.

SMILES	% inhibition [1] [%]	Average weight of tumor ([1]; days 3 to 10, day 21) [g]	Living cells, % ([2]; Experiment 1, T2N1M0) [%]	Dead cells, % ([2]; Experiment 1, T2N1M0, 40 million cells, 50 μl of preparation) [%]	Living cells, % ([3]; Experiment 2, T4N2M0) [%]	Dead cells, % ([3]; Experiment 2, T4N2M0, 40 million cells, 50 μl of preparation) [%]	formation of ROS in neutrophils (neutrophils)	Apoptotic index AI (melanoma B 16)	Bone marrow index MI BM (melanoma B 16)	Inhibition of tumor growth, mass percent (melanoma B 16)	Inhibition of tumor growth, volume percent (melanoma B 16)	Mitotic index of tumor cells MI (melanoma B 16)	Average volume of tumor (melanoma B 16; days 3, 5, 7, 9) [cm^3]	Average weight of tumor (melanoma B 16; days 3, 5, 7, 9) [mg]	% inhibition ([4]; 10 mg/kg orally) [%]	Average MI of bone marrow ([4]; 10 mg/kg orally)	Average MI of tumor cells ([4]; 10 mg/kg orally)	Average number of tumor cells ([4]; 10 mg/kg orally in olive oil, days 3 to 10, day 11)
NC(Cc1ccc(N(CCCl)CCCl)cc1)C(=O)O (racemic) [sarcolysine, 4-[bis(2-chloroethyl)amino]-D,L-phenylalanine, reference compound]	43	1.85	54.0 ± 2.22	46.0 ± 2.22	51.0 ± 2.23	49.0 ± 2.23	hardly achieved	3.07 ‰	1.88 ‰	mass percent 62.87%	volume percent 35.78%	2.43 ‰	1.4	482.6	47.4	0.52 ± 0.26 ‰	2.0 ± 1.87 ‰	77 10^6
O=c1[nH]c(=O)n(C2CCCO2)cc1F (stereo not shown) [tegafur, N-(2-furanidil)-5-fluorouracil, reference compound]	–	–	–	–	–	–	hardly achieved	–	–	–	–	–	–	–	–	–	–	–

Reference: patent publication US20110077230A1, “COPPER ORGANOCOMPLEXES, USE THEREOF AS ANTITUMOR MEANS AND FOR PROTECTING HEALTHY TISSUE FROM IONIZING RADIATION” (CHARITE - UNIVERSITATSMEDIZIN BERLIN, priority 2008, published 2011)
